According to PubChem BioAssay AID330 (DTP/NCI, 2004):
“And” between values parts separate entries of the source, which are not always exact repeats. Equal values may be shown once. Inconclusive results and toxic doses are left out. How the source made its calls: active means survival T/C of 150% or more; inactive means T/C below 125% in these data.

Test system: P388 leukemia ip, CD2F1 mice, survival T/C
Assay: NCI In Vivo Anticancer Drug Screen. Data for tumor model P388 Leukemia (intraperitoneal) in CD2F1 (CDF1) mice
Settings: endpoint: median survival time, higher = longer survival
Summary of the method: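 Mice carrying the transplanted tumor received test compound or vehicle. Survival was recorded in each group, and the value is the treated-group measurement divided by that of the vehicle-treated control group.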

[1] = dose: 50.0 mg/kg/injection, schedule: Q01DX005 (ip), vehicle: Klucel (hydroxypropylcellulose) (HPC)
[2] = dose: 100.0 mg/kg/injection, schedule: Q01DX005 (ip), vehicle: Klucel (hydroxypropylcellulose) (HPC)
[3] = dose: 200.0 mg/kg/injection, schedule: Q01DX005 (ip), vehicle: Klucel (hydroxypropylcellulose) (HPC)
[4] = dose: 60.0 mg/kg/injection, schedule: Q01DX005 (ip), vehicle: saline with Tween-80
[5] = dose: 120.0 mg/kg/injection, schedule: Q01DX005 (ip), vehicle: saline with Tween-80
[6] = dose: 240.0 mg/kg/injection, schedule: Q01DX005 (ip), vehicle: saline with Tween-80
[7] = dose: 50.0 mg/kg/injection, schedule: Q01DX009 (ip), vehicle: saline
[8] = dose: 100.0 mg/kg/injection, schedule: Q01DX009 (ip), vehicle: saline

Measured: T/C

CC(=O)OCC(C)[C@H](C)C(=O)C1OCOC(C2CC(=O)NC(=O)C2)[C@@H]1OC(C)=O (stereo partly specified)
inactive: dose: 0.01 mg/kg/injection, schedule: Q01DX009 (ip), vehicle: distilled water + alcohol 100 % of control | dose: 0.03 mg/kg/injection, schedule: Q01DX009 (ip), vehicle: distilled water + alcohol 98 % of control | dose: 0.06 mg/kg/injection, schedule: Q01DX009 (ip), vehicle: distilled water + alcohol 98 % of control | dose: 0.12 mg/kg/injection, schedule: Q01DX009 (ip), vehicle: distilled water + alcohol 100 % of control

COC(=O)n1c(=O)oc2c(Br)cc(Br)cc21
inactive: [1] 103 % of control | [2] 106 % of control | [3] 103 % of control

CC1=N[C@@H](C(=O)NCC(N)=O)Cc2c1[nH]c1ccccc21
inactive: [4] 98 % of control | [5] 93 % of control | [6] 93 % of control

CCCCCCC[CH2][Sn]([Cl])([CH2]CCCCCCC)[O][Sn]([CH2]CCCCCCC)([CH2]CCCCCCC)[O]C
inactive: dose: 100.0 mg/kg/injection, schedule: Q04DX003 (ip), vehicle: saline 101 % of control | dose: 200.0 mg/kg/injection, schedule: Q04DX003 (ip), vehicle: saline 96 % of control | dose: 400.0 mg/kg/injection, schedule: Q04DX003 (ip), vehicle: saline 98 % of control

O=C1C=CC(=O)C(Sc2cccc3ccccc23)=C1
inactive: dose: 6.25 mg/kg/injection, schedule: Q01DX005 (ip), vehicle: Klucel (hydroxypropylcellulose) (HPC) 96 % of control | dose: 12.5 mg/kg/injection, schedule: Q01DX005 (ip), vehicle: Klucel (hydroxypropylcellulose) (HPC) 102 % of control and 97 % of control | dose: 25.0 mg/kg/injection, schedule: Q01DX005 (ip), vehicle: Klucel (hydroxypropylcellulose) (HPC) 93 % of control | [1] 98 % of control and 107 % of control | [2] 107 % of control | [3] 104 % of control

O=C1OCC2C1Cc1cc(O)c(O)cc1C2c1ccc(O)c(O)c1 (stereo unspecified)
inactive: dose: 100.0 mg/kg/injection, schedule: Q01DX009 (ip), vehicle: Klucel (hydroxypropylcellulose) (HPC) 94 % of control | dose: 200.0 mg/kg/injection, schedule: Q01DX009 (ip), vehicle: Klucel (hydroxypropylcellulose) (HPC) 92 % of control | dose: 400.0 mg/kg/injection, schedule: Q01DX009 (ip), vehicle: Klucel (hydroxypropylcellulose) (HPC) 111 % of control

Cc1[nH]cc2c1C(c1ccccc1)=NCC(=O)N2
inactive: dose: 50.0 mg/kg/injection, schedule: Q01DX009 (ip), vehicle: saline with Tween-80 105 % of control | dose: 100.0 mg/kg/injection, schedule: Q01DX009 (ip), vehicle: saline with Tween-80 100 % of control | dose: 200.0 mg/kg/injection, schedule: Q01DX009 (ip), vehicle: saline with Tween-80 114 % of control

COC(=O)[C@H]1[C@H]2C[C@@H]3c4[nH]c5cc(OC)ccc5c4CCN3C[C@H]2C[C@@H](OC(=O)c2cc(OC)c(OC)c(OC)c2)[C@@H]1OC
inactive: dose: 0.25 mg/kg/injection, schedule: Q01DX009 (ip), vehicle: Klucel (hydroxypropylcellulose) (HPC) 100 % of control | dose: 0.5 mg/kg/injection, schedule: Q01DX009 (ip), vehicle: Klucel (hydroxypropylcellulose) (HPC) 97 % of control | dose: 1.0 mg/kg/injection, schedule: Q01DX009 (ip), vehicle: Klucel (hydroxypropylcellulose) (HPC) 97 % of control | dose: 2.0 mg/kg/injection, schedule: Q01DX009 (ip), vehicle: Klucel (hydroxypropylcellulose) (HPC) 95 % of control | dose: 4.0 mg/kg/injection, schedule: Q01DX009 (ip), vehicle: Klucel (hydroxypropylcellulose) (HPC) 96 % of control

CN(C)c1ccc(/C=N/c2nc(-c3ccccc3)cs2)cc1
inactive: [7] 115 % of control | [8] 111 % of control | dose: 200.0 mg/kg/injection, schedule: Q01DX009 (ip), vehicle: saline 101 % of control

Cn1cnc2c(NCCO)ncnc21
inactive: dose: 50.0 mg/kg/injection, schedule: Q01DX005 (ip), vehicle: saline with Tween-80 118 % of control | dose: 100.0 mg/kg/injection, schedule: Q01DX005 (ip), vehicle: saline with Tween-80 100 % of control | dose: 200.0 mg/kg/injection, schedule: Q01DX005 (ip), vehicle: saline with Tween-80 103 % of control

O=C(Nc1cc(S(=O)(=O)O)cc2cc(S(=O)(=O)O)c(N=Nc3cc(Nc4nc(Cl)nc(Nc5ccc(S(=O)(=O)O)cc5)n4)ccc3S(=O)(=O)O)c(O)c12)c1ccccc1
inactive: dose: 60.0 mg/kg/injection, schedule: Q01DX005 (ip), vehicle: saline 106 % of control | dose: 120.0 mg/kg/injection, schedule: Q01DX005 (ip), vehicle: saline 102 % of control

CCOC(=O)CCSC(=O)NCCCCCCNC(=O)SCCC(=O)OCC
inactive: [1] 98 % of control | [2] 96 % of control | [3] 102 % of control

CCCCCCCCCCCCCCCCOCC(COP(=O)([O-])OCC[N+](C)(C)C)OCCCCCCCCCCCCCCCC (stereo unspecified)
inactive: [4] 97 % of control | [5] 100 % of control | [6] 104 % of control

CCCCCC(CN(C)C)C(=O)/C=C/c1ccc(Cl)c(Cl)c1 (stereo unspecified)
inactive: dose: 1.56 mg/kg/injection, schedule: Q01DX009 (ip), vehicle: saline 100 % of control | dose: 3.12 mg/kg/injection, schedule: Q01DX009 (ip), vehicle: saline 100 % of control | dose: 6.25 mg/kg/injection, schedule: Q01DX009 (ip), vehicle: saline 102 % of control | dose: 12.5 mg/kg/injection, schedule: Q01DX009 (ip), vehicle: saline 109 % of control | dose: 25.0 mg/kg/injection, schedule: Q01DX009 (ip), vehicle: saline 92 % of control

C=C1CC(C)(Cl)C(Cl)CC1/C=C/Cl (stereo unspecified)
inactive: dose: 1.87 mg/kg/injection, schedule: Q01DX009 (ip), vehicle: saline + alcohol 100 % of control | dose: 3.75 mg/kg/injection, schedule: Q01DX009 (ip), vehicle: saline + alcohol 99 % of control | dose: 7.5 mg/kg/injection, schedule: Q01DX009 (ip), vehicle: saline + alcohol 103 % of control | dose: 15.0 mg/kg/injection, schedule: Q01DX009 (ip), vehicle: saline + alcohol 100 % of control

CCC1CN2CCc3cc(OC)c(OC)cc3C2CC1CCCl (stereo unspecified)
inactive: dose: 12.5 mg/kg/injection, schedule: Q01DX009 (ip), vehicle: Klucel (hydroxypropylcellulose) (HPC) 94 % of control | dose: 25.0 mg/kg/injection, schedule: Q01DX009 (ip), vehicle: Klucel (hydroxypropylcellulose) (HPC) 103 % of control | dose: 50.0 mg/kg/injection, schedule: Q01DX009 (ip), vehicle: Klucel (hydroxypropylcellulose) (HPC) 103 % of control and 106 % of control

COC1=C(C)C(=O)C2=C(C1=O)[C@@H]1[C@@H]3Cc4c(OC(=O)CO)c(C)c(OC)c(O)c4[C@H](CNC(=O)C(C)=O)N3[C@@H](C#N)[C@H](C2)N1C
inactive: dose: 0.63 mg/kg/injection, schedule: Q01DX005 (ip), vehicle: Klucel (hydroxypropylcellulose) (HPC) 106 % of control | dose: 1.25 mg/kg/injection, schedule: Q01DX005 (ip), vehicle: Klucel (hydroxypropylcellulose) (HPC) 115 % of control | dose: 2.25 mg/kg/injection, schedule: Q01DX005 (ip), vehicle: Klucel (hydroxypropylcellulose) (HPC) 120 % of control | dose: 2.5 mg/kg/injection, schedule: Q01DX005 (ip), vehicle: Klucel (hydroxypropylcellulose) (HPC) 115 % of control | dose: 625.0 micrograms/kg/injection, schedule: Q01DX005 (ip), vehicle: Klucel (hydroxypropylcellulose) (HPC) 103 % of control | dose: 1250.0 micrograms/kg/injection, schedule: Q01DX005 (ip), vehicle: Klucel (hydroxypropylcellulose) (HPC) 110 % of control | dose: 2500.0 micrograms/kg/injection, schedule: Q01DX005 (ip), vehicle: Klucel (hydroxypropylcellulose) (HPC) 116 % of control | dose: 5000.0 micrograms/kg/injection, schedule: Q01DX005 (ip), vehicle: Klucel (hydroxypropylcellulose) (HPC) 118 % of control

C(=C1c2ccccc2-c2ccccc21)c1ccccc1
inactive: dose: 100.0 mg/kg/injection, schedule: Q04DX003 (ip), vehicle: saline with Tween-80 100 % of control | dose: 200.0 mg/kg/injection, schedule: Q04DX003 (ip), vehicle: saline with Tween-80 100 % of control | dose: 400.0 mg/kg/injection, schedule: Q04DX003 (ip), vehicle: saline with Tween-80 100 % of control

CC(=O)c1c[nH]c(=O)c2cc3c(cc12)OCO3
inactive: [4] 95 % of control | [5] 91 % of control

O=C1CCC2(O)[C@@H]3Cc4ccc(O)c5c4[C@]2(CCN3Cc2ccoc2)C1O5 (stereo partly specified)
inactive: [7] 124 % of control | dose: 66.0 mg/kg/injection, schedule: Q01DX009 (ip), vehicle: saline 107 % of control and 91 % of control | [8] 105 % of control and 121 % of control and 96 % of control | dose: 150.0 mg/kg/injection, schedule: Q01DX009 (ip), vehicle: saline 98 % of control and 116 % of control

O=C1c2ccccc2C(=O)C1C(=Nc1ccc(F)cc1)c1ccccc1
inactive: [1] 103 % of control | [2] 103 % of control | [3] 99 % of control
